Source: publication PMC6271731, “Multitarget Molecular Hybrids of Cinnamic Acids” (Molecules, 2014)
Where “and” joins values, the source holds several entries; their conditions need not be identical. Equal entries are not always repeated. Marks after values point to notes of the source that are not given here.

Experiments:
[1] = tested on: carrageenin-induced rat paw oedema; experiment: Inhibition of the carrageenin-induced rat paw oedema; format: in vivo, Fisher-344 rats; settings: 0.01 mmol/1 kg, i.p., 3.5 h after carrageenin
Protocol: (§1) Anti-inflammatory tests were conducted on Fisher-344 inbred rats of ca. 200 g body weight whereas antinociception and motor and sensory functions after sciatic nerve crash were performed on Wistar rats. Both sexes were used. Females pregnant were excluded. Each group was composed of 6 animals. The animals, which have been bred in our laboratory, were housed under standard conditions and received a diet of commercial food pellets and water ad libitum during the maintenance. Our studies were carried out in accordance with recognised guidelines on animal experimentation.
The tested compounds 0.01 mmol/kg body weight were suspended in water with few drops of Tween 80 and ground in a mortar before use. Controls received the liquid vehicle only. All the in vivo experiments were repeated at least in triplicate and were subjected to statistic analysis using the student’s t-test.
Oedema was induced in the right hind paw of Fisher 344 rats by the intradermal injection of 0.1 mL 2% carrageenin in water. Each group was composed of 6 animals which they were entirely fasted during the experiment period. The tested compounds 0.01 mmol/kg body weight, were given intraperitoneally simultaneously with the carrageenin injection. The rats were euthanized 3.5 h after carrageenin injection. The difference between the weight of the injected and not-injected paws was calculated for each animal. The change in paw weight was compared with that in control animals (treated with water) and expressed as a percent inhibition of the oedema (ICPE % values in Table 1). Indomethacin 0.01 mmol/kg was used as reference compound. ICPE % are the mean values from two different experiments with a standard error of the mean less than 10%.

soybean lipoxygenase = biological target: T1, soybean lipoxygenase (Glycine max, UniProt P08170); experiment: Soybean lipoxygenase inhibition in vitro; format: biochemical
T1 construct: purchased Sigma Chemical, Co. (St. Louis, MO, USA)
T1 sequence (P08170 1-839): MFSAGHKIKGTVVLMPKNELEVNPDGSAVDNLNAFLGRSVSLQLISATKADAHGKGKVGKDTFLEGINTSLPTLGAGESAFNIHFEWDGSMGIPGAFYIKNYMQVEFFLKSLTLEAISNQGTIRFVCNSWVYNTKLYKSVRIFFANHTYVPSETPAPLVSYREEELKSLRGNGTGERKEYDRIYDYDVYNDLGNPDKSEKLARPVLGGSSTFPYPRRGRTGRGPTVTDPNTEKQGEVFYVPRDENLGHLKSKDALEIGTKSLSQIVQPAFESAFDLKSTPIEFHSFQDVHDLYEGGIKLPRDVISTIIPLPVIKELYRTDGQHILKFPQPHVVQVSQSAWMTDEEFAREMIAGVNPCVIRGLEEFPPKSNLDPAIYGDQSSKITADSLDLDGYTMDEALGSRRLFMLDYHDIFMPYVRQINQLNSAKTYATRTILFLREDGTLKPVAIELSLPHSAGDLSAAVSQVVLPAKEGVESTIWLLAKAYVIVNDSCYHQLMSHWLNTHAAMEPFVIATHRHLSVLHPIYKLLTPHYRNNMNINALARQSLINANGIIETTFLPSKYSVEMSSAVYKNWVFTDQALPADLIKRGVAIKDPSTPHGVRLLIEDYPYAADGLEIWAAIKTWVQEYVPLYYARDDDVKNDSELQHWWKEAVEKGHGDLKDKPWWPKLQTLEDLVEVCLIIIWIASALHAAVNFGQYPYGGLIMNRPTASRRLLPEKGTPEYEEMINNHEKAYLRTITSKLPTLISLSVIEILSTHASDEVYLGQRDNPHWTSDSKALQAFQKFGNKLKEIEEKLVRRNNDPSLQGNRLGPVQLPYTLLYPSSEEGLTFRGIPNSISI
Protocol: DMSO solution of the tested compound was incubated with sodium linoleate (0.1 mM) and 0.2 mL of soybean lipoxygenase solution (1/9 × 10^−4 w/v in saline) in buffer pH 9 (tris) and at room temperature. […] The results are given in Table 1 expressed as IC50 values or % inhibition at 100 μM.

[2] = tested on: acetic acid-induced writhing; experiment: Antinociceptive screen (writhing test); format: in vivo, Wistar rats; settings: i.p. 30 min before 0.6% acetic acid, writhes counted over 30 min
Protocol: as §1
[…] Controls received the liquid vehicle only. All the in vivo experiments were repeated at least in triplicate and were subjected to statistic analysis using the student’s t-test.
The writhing reflex was used. The test compounds were administered i.p. 30 min prior to the i.p. administration of 1 mL/100 g body weight of 0.6% acetic acid. […] After 5 min, the number of stretches characterized by repeated contractions of the abdominal musculature accompanied by extension of the hind limbs was counted every 5 min for the next 30 min. […] The % antinociceptive activity (a:a) was calculated as: % a:a = (n − n'/n) × 100 (a: a analgesic activity, n average number of writhes of control group, n' average number in the test group).

[3] = In vitro stability under acidic and basic conditions; format: physicochemical; settings: pH 3, 4.5 and 9, 37 °C, 24 h
Protocol: In an attempt to mimic the acidic/basic conditions in the gastrointestinal route, measurements at pH: (i) 3; (ii) 4.5 and (iii) 9 were performed. The pH value was adjusted with the appropriate buffer (CH3COONa/CH3COOH) to 4.5 and 3 and Tris to pH 9. 20 μL of the tested compounds in DMSO and buffer 980 μL (4.5 or 3 pH) incubated at 37 °C for 24 h. The stability of the compounds was monitored chromatographically after 3 and 9 h. After 24 h, the incubated solution (in all cases) was treated with chloroform (1 mL). The organic layer was analyzed spectrophotometrically.

sciatic nerve crush = experiment: Flat runway test after sciatic nerve crush; format: in vivo, Wistar rats; parameters: key: 0: No movement; 1: Mild movement; 2: Walking with mild deficit; 3: Nearly normal; settings: crushed animals treated with 2a, day 1 to day 21
Protocol: The locomotor function recovery was examined through the flat runway test, the inclined plane runway test, the grid walking test and the Sciatic Functional Index (SFI) calculation.
One day prior to the surgery and the behavioral testing, Wistar rats were handled by the investigators and introduced to the testing environment for a brief period of time. Rats were anesthetized with chloral hydrate 4.5% (1 mL/100 g). […] After the exposure, the nerve was crushed once for 30 s at standardized force. The muscle was reapproximated and the skin incision was closed using 6 to 0 sutures. The examination of the loss of sensory and motor function in the operated limb established the crush completeness. Digits in the operated limb were pinched with a blunt forceps. Absence of foot withdrawal and vocalization was recorded as loss of sensory and motor function. Animals were placed under a heating lamp until they recovered from the anesthesia and they returned to their home cages.
The tested solutions were freshly prepared on surgery day (day 0).
The animals were subjected to a locomotor testing one day before the surgery and on the 1st, 8th, 15th and 22nd day after the sciatic nerve injury. The day of the surgery is considered as day 0 [36, 37, 38].
Rats were trained to walk on a wooden board (1 m × 15 cm) for 120 s. The hindlimb movement was assessed with the scoring mentioned before.

CC(=O)Nc1ccc(OC(=O)/C=C/c2cccc(Oc3ccccc3)c2)cc1 [Compound 2a, (E)-4-Acetamidophenyl 3-(3-phenoxyphenyl)acrylate]
% ICPE (carrageenin-induced rat paw oedema inhibition) [1]: 36.5% and 36.5 ** %
IC50 (soybean lipoxygenase): 100 µM
% ANA (in vivo analgesic-antinociceptive activity) ([2]; 0.01 mmol/0.1 kg): 91 ** %
inhibition in vivo at 0.01 mmol/0.1 kg ([2]; Rattus norvegicus, ip, 0.5 h, read-out: % ANA (in vivo analgesic-antinociceptive activity)): 91%
stability under acidic and basic conditions [3]: confirmed the stability
Flat runway score (movement in hindlimb) (sciatic nerve crush): 3
